Reference: publication PMC10218941, “Design, Synthesis, Antiproliferative Actions, and DFT Studies of New Bis–Pyrazoline Derivatives as Dual EGFR/BRAF^V600E Inhibitors” (International Journal of Molecular Sciences, 2023)
Where “and” joins values, the source holds several entries; their conditions need not be identical. Identical values can stand only once. Like-named read-outs stand apart in the source and are kept apart here.

Experiments:
EGFR [1] = target: T1, EGFR (Homo sapiens, UniProt P00533); set-up: method as in PMID 35424523; conditions: cited from earlier work
T1 construct: 645–1186); His6 (N); made in house; host or cells: Sf-9 insect cells (baculovirus; pBlueBacHis2B / pFASTBacHTc
T1 sequence (P00533 669-1210): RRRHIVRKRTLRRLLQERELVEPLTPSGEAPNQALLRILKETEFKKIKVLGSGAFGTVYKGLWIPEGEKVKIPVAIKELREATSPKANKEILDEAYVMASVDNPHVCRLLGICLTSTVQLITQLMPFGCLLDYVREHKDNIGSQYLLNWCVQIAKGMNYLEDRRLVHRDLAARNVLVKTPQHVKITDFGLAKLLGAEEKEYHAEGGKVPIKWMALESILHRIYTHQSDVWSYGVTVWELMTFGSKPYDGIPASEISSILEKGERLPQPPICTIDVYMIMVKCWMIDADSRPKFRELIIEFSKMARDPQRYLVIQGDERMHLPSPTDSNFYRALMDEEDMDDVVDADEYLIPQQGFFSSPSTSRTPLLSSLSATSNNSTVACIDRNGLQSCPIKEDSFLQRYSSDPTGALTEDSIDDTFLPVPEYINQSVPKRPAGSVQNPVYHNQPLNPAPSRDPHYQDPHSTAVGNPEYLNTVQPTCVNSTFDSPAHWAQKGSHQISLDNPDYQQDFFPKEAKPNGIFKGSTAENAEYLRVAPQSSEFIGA

BRAF^V600E [2] = test system: BRAF^V600E; set-up: method as in PMID 35424523; conditions: cited from earlier work
[3] = Cell viability assay (MTT) on normal mammary epithelial cells; type: cell-based; conditions: human, MCF-10A normal mammary gland epithelial cells, MCF-10A cells, four days
Description: To test the viability of new substances, the epithelial (MCF-10A) cell line of the normal human mammary gland was used. Compounds 8–17 were incubated for four days on MCF-10A cells before being tested for viability using the MTT assay. According to Table 1, none of the substances tested were cytotoxic, and cell viability at 50 µM was greater than 87% for the compounds tested.
The normal human mammary gland epithelial (MCF-10A) cell line was used to test the viability of new compounds [46, 47]. See Appendix SA (Supplementary File).
(§1) 4.2. Biological evaluation
4.2.1. Cytotoxic activity using MTT Assay and evaluation of IC50
MTT assay was performed to investigate the effect of the synthesized compounds on mammary epithelial cells (MCF-10A). The cells were propagated in medium consisting of Ham's F-12 medium/ Dulbecco's modified Eagle's medium (DMEM) (1:1) supplemented with 10% foetal calf serum, 2 mM glutamine, insulin (10 μg/mL), hydrocortisone (500 ng/mL) and epidermal growth factor (20 ng/mL). Trypsin ethylenediamine tetra acetic acid (EDTA) was used to passage the cells after every 2-3 days. 96-well flat-bottomed cell culture plates were used to seed the cells at a […]
of 10^4 cells mL-1. The medium was aspirated from all the wells of culture plates after 24 h followed by the addition of synthesized compounds (in 200 μL medium to yield a final concentration of 0.1% (v/v) dimethyl sulfoxide) into individual wells of the plates. Four wells were designated to a single compound. The plates were allowed to incubate at 37°C for 96 h. Afterwards, the medium was aspirated and 3 -[4,5-dimethylthiazol-2-yl]-2,5-diphenyltetrazolium bromide (MTT) (0.4 mg/mL) in medium was added to each well and subsequent ly incubated for 3 h. The medium was aspirated and 150 μL dimethyl sulfoxide (DMSO) was added to each well. The plates were vortexed followed by the measurement of absorbance at 540 nm on a microplate reader. […]

[4] = test system: A-549 (lung cancer cell line); assay: Antiproliferative assay (MTT), A-549; type: cell-based; conditions: Homo sapiens, A549; read-out: Antiproliferative Activity IC50 ± SEM (µM) A-549
Description: (§2) The antiproliferative activity of pyrazoline hybrids 8–17 was tested against the four human cancer cell lines Panc-1 (pancreatic cancer cell line), MCF-7 (breast cancer cell line), HT-29 (colon cancer cell line), and A-549 (lung cancer cell line) using the MTT assay and doxorubicin as the reference drug. See Appendix SA (Supplementary File).
as §1
(§3) 4.2.1. Cytotoxic activity using MTT Assay and evaluation of IC50 […]
(§4) 96-well flat-bottomed cell culture plates were used to seed the cells at a […]
(§5) of 10^4 cells mL-1. The medium was aspirated from all the wells of culture plates after 24 h followed by the addition of synthesized compounds (in 200 μL medium to yield a final concentration of 0.1% (v/v) dimethyl sulfoxide) into individual wells of the plates. Four wells were designated to a single compound. The plates were allowed to incubate at 37°C for 96 h. Afterwards, the medium was aspirated and 3 -[4,5-dimethylthiazol-2-yl]-2,5-diphenyltetrazolium bromide (MTT) (0.4 mg/mL) in medium was added to each well and subsequent ly incubated for 3 h. The medium was aspirated and 150 μL dimethyl sulfoxide (DMSO) was added to each well. The plates were vortexed followed by the measurement of absorbance at 540 nm on a microplate reader. The results were presented as inhibition (%) of proliferation in contrast to controls comprising 0.1% 4.2.1.2. Assay for antiproliferative effect
(§6) To explore the antiproliferative potential of compounds propidium iodide fluorescence assay was performed using different cell lines such as Panc -1 (pancreas cancer cell line), MCF-7 (breast cancer cell line), HT-29 (colon cancer cell line) and A-549 (epithelial cancer cell line), respectively. To calculate the total nuclear DNA, a fluorescent dye (propidium iodide, PI) is used which can attach to the DNA, thus offering a quick and precise technique. PI cannot pass through the cell membrane and its signal intensity can be considered as directly proportional to quantity of cellular DNA. Cells whose cell membranes are damaged or have changed permeability are counted as dead ones. The assay was performed by seeding the cells of different cell lines at a density of 3000-7500 cells/well (in200μl medium) in culture plates followed by incubation for 24h at 37 °C in humidified 5%CO2/95% air atmospheric conditions. The medium was removed; the compounds were added to the plates at 10 μM concentrations (in 0.1% DMSO) in triplicates, followed by incubation for 48h. DMSO (0.1%) was used as control. After incubation, medium was removed followed by the addition of PI (25 μl, 50μg/mL in water/medium) to each well of the plates. At - 80 °C, the plates were allowed to freeze for 24 h, followed by thawing at 25 °C. A fluorometer (Polar-Star BMG Tech) was used to record the readings at excitation and emission wavelengths of 530 and 620 nm for each well. The percentage cytotoxicity of compounds was calculated using […]
(§7) Where ATC= Absorbance of treated cells and AC= Absorbance of control. Erlotinib was used as positive control in the assay. […]

[5] = test system: MCF-7 (breast cancer cell line); assay: Antiproliferative assay (MTT), MCF-7; type: cell-based; conditions: Homo sapiens, MCF7; read-out: Antiproliferative Activity IC50 ± SEM (µM) MCF-7
Description: as §2, §1, §3, §4, §5, §6, §7

[6] = test system: Panc-1 (pancreatic cancer cell line); assay: Antiproliferative assay (MTT), Panc-1; type: cell-based; conditions: Homo sapiens, read-out: Antiproliferative Activity IC50 ± SEM (µM) Panc-1
Description: as §2, with “File). […]” for “File).”
(§8) 4.2.1.2. Assay for antiproliferative effect
as §6, §7

[7] = test system: HT-29 (colon cancer cell line); assay: Antiproliferative assay (MTT), HT-29; type: cell-based; conditions: Homo sapiens, read-out: Antiproliferative Activity IC50 ± SEM (µM) HT-29
Description: as §2, with “File). […]” for “File).”
as §8, §6, §7

[8] = test system: four human cancer cell lines (A-549, MCF-7, Panc-1, HT-29); assay: Antiproliferative assay, mean of four cancer cell lines (GI50); type: cell-based; conditions: mean over A-549, MCF-7, Panc-1, HT-29
EGFR [9] = target: T1, EGFR; assay: EGFR inhibitory assay; type: biochemical; conditions: read-out: EGFR Inhibition IC50 ± SEM
Description: 4.2.2. EGFR inhibitory assay
Baculoviral expression vectors including pBlueBacHis2B and pFASTBacHTc were used […]
(1 picture or pasted object on this page, not shown here)
5ʹ upstream to the EGFR sequence comprised a sequence that encoded (His)6. Sf-9 cells were infected for 72h for protein expression. The pellets of Sf-9 cells were solubilized in a buffer containing sodium vanadate (100 μM), aprotinin (10 μg/mL), triton (1%), HEPES […]
centrifugation for 20 min.
Histidine-linked proteins were first eluted with 250 and then […]
enhancement solution was added to each well and the signal was recorded at excitation and […]
The autophosphorylation percentage inhibition by compounds was calculated using the following equation: […]

BRAF^V600E [10] = assay: BRAF^V600E inhibitory assay
Target sequence in this assay (P28028 whole entry V585E): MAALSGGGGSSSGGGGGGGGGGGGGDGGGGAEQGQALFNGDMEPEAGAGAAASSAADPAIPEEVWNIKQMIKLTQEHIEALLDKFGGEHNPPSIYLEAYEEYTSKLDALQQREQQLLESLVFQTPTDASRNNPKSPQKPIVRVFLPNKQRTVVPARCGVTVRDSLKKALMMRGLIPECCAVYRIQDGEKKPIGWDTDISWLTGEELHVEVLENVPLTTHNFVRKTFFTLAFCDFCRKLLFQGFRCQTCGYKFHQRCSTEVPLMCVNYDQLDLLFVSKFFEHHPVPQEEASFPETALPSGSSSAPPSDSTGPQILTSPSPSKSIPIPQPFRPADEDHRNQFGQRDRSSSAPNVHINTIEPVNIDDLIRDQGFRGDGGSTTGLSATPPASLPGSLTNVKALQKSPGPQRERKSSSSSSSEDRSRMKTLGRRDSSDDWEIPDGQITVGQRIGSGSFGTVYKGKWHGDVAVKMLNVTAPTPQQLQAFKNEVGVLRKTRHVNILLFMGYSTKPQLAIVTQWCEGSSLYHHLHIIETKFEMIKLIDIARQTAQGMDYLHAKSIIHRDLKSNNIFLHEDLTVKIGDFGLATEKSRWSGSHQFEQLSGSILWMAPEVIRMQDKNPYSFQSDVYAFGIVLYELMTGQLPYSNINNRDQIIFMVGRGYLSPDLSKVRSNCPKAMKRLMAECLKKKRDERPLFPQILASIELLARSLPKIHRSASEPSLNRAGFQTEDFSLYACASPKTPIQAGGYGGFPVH
Description: V600E mutant BRAF kinase assay was performed to investigate the activity of tested compounds against BRAF. Mouse full-length GST-tagged BRAFV600E (7.5 ng, Invitrogen, PV3849) was pre-incubated with drug (1 µL) and assay dilution buffer (4 µL) for 60 min at 25 °C. In assay dilution buffer, a solution (5 µL) containing MgCl2 (30 mM), ATP (200 µM), recombinant human full length (200 ng) and N-terminal His-tagged MEK1 (Invitrogen) was added to start the assay, subsequent to incubation for 25 min at 25 °C. The assay was stopped using 5X protein denaturing buffer (LDS) solution (5 µL). To further denature the protein, heat (70° C) was applied for 5 min.
10 µL of each reaction was loaded into the precast plates and electrophoresis was allowed to proceed. After completion of electrophoresis, the front part of the precast gel plate (holding hot ATP) was cut and afterwards cast-off. The dried gel was developed using a phosphor screen.
served as positive control.

SMILES	IC50 [4]	IC50 [5]	IC50 [6]	IC50 [7]	IC50 [8]	IC50 (EGFR [9])	IC50 (BRAF^V600E [10])	IC50 (EGFR [1])	IC50 (BRAF^V600E [2])	viability at 96 h, 50 µM [3]
Cc1c(Nc2nc3c(C(=O)NN)c(N)sc3s2)c(=O)n(-c2ccccc2)n1C [II]								20 nM	88 nM and 90 nM	
O=C(COc1ccc(C2=NNC(c3ccc(Cl)cc3)C2)cc1)Nc1ccc(C2=NNC(c3ccc(Br)cc3)C2)cc1 (stereo not shown) [Compound 10, 2-(4-(5-(4-Chlorophenyl)-4,5-dihydro-1H-pyrazol-3-yl)phenoxy)-N-(4-(5-(4-bromophenyl)-4,5-dihydro-1H-pyrazol-3-yl)phenyl)acetamide]	3.2 ± 0.3 µM	2.9 ± 0.2 µM	3.2 ± 0.3 µM	3.1 ± 0.3 µM	3100 nM					89%
Cc1c(NC2=NC(=O)CS2)c(=O)n(-c2ccccc2)n1C [I]								22 nM and 20 nM	2030 nM	
O=C(COc1ccc(C2=NNC(c3ccc(Cl)cc3)C2)cc1)Nc1ccc(C2=NNC(c3ccccc3)C2)cc1 (stereo not shown) [Compound 8, 2-(4-(5-(4-Chlorophenyl)-4,5-dihydro-1H-pyrazol-3-yl)phenoxy)-N-(4-(5-phenyl-4,5-dihydro-1H-pyrazol-3-yl)phenyl)acetamide]	4.3 ± 0.4 µM	4.1 ± 0.4 µM	4.6 ± 0.4 µM	4.5 ± 0.4 µM	4400 nM					90%
COc1ccc(C2CC(c3ccc(NC(=O)COc4ccc(C5=NNC(c6ccc(Cl)cc6)C5)cc4)cc3)=NN2)cc1 (stereo not shown) [Compound 9, 2-(4-(5-(4-Chlorophenyl)-4,5-dihydro-1H-pyrazol-3-yl)phenoxy)-N-(4-(5-(4-methoxyphenyl)-4,5-dihydro-1H-pyrazol-3-yl)phenyl)acetamide]	2.2 ± 0.2 µM	1.9 ± 0.1 µM	2.6 ± 0.2 µM	2.5 ± 0.2 µM	2300 nM					89%

The next lines start with results.

IC50 [4]	IC50 [5]	IC50 [6]	IC50 [7]	IC50 [8]	IC50 (EGFR [9])	IC50 (BRAF^V600E [10])	SMILES	IC50 (EGFR [1])	IC50 (BRAF^V600E [2])	viability at 96 h, 50 µM [3]
1.4 ± 0.1 µM	1.2 ± 0.1 µM	1.7 ± 0.1 µM	1.7 ± 0.1 µM	1500 nM	93 ± 7 nM	98 ± 8 nM	COc1ccc(C2CC(c3ccc(OCC(=O)Nc4ccc(C5=NNC(c6ccc(Cl)cc6)C5)cc4)cc3)=NN2)cc1 (stereo not shown) [Compound 15, 2-(4-(5-(4-Methoxyphenyl)-4,5-dihydro-1H-pyrazol-3-yl)phenoxy)-N-(4-(5-(4-chlorophenyl)-4,5-dihydro-1H-pyrazol-3-yl)phenyl)acetamide]			90%
1.8 ± 0.1 µM	1.6 ± 0.1 µM	2 ± 0.1 µM	2 ± 0.1 µM	1850 nM	104 ± 9 nM	125 ± 10 nM	COc1ccc(C2CC(c3ccc(OCC(=O)Nc4ccc(C5=NNC(c6ccc(Br)cc6)C5)cc4)cc3)=NN2)cc1 (stereo not shown) [Compound 14, 2-(4-(5-(4-Methoxyphenyl)-4,5-dihydro-1H-pyrazol-3-yl)phenoxy)-N-(4-(5-(4-bromophenyl)-4,5-dihydro-1H-pyrazol-3-yl)phenyl)acetamide]			89%
4.8 ± 0.4 µM	4.6 ± 0.4 µM	4.9 ± 0.4 µM	5 ± 0.4 µM	4800 nM			COc1ccc(C2CC(c3ccc(OCC(=O)Nc4ccc(C5=NNC(c6ccc(C)cc6C)C5)cc4)cc3)=NN2)cc1 (stereo not shown) [Compound 13, 2-(4-(5-(4-Methoxyphenyl)-4,5-dihydro-1H-pyrazol-3-yl)phenoxy)-N-(4-(5-(2,4-dimethylphenyl)-4,5-dihydro-1H-pyrazol-3-yl)phenyl)acetamide]			87%
2.9 ± 0.2 µM	2.7 ± 0.2 µM	2.9 ± 0.2 µM	3 ± 0.2 µM	2900 nM			O=C(COc1ccc(C2=NNC(c3ccc(Cl)cc3)C2)cc1)Nc1ccc(C2=NNC(c3ccc(Cl)cc3)C2)cc1 (stereo not shown) [Compound 11, 2-(4-(5-(4-Chlorophenyl)-4,5-dihydro-1H-pyrazol-3-yl)phenoxy)-N-(4-(5-(4-chlorophenyl)-4,5-dihydro-1H-pyrazol-3-yl)phenyl)acetamide]			87%
1.4 ± 0.08 µM	0.9 ± 0.02 µM	1 ± 0.02 µM	1.2 ± 0.03 µM	1100 nM			COc1cccc2c1C(=O)c1c(O)c3c(c(O)c1C2=O)C[C@@](O)(C(=O)CO)C[C@@H]3O[C@H]1C[C@H](N)[C@H](O)[C@H](C)O1 [Doxorubicin, reference compound]			
3.7 ± 0.3 µM	3.5 ± 0.3 µM	3.8 ± 0.3 µM	3.9 ± 0.3 µM	3700 nM			COc1ccc(C2CC(c3ccc(OCC(=O)Nc4ccc(C5=NNC(c6ccc(F)cc6)C5)cc4)cc3)=NN2)cc1 (stereo not shown) [Compound 16, 2-(4-(5-(4-Methoxyphenyl)-4,5-dihydro-1H-pyrazol-3-yl)phenoxy)-N-(4-(5-(4-fluorophenyl)-4,5-dihydro-1H-pyrazol-3-yl)phenyl)acetamide]			89%
